system: 454973-116-R2-J3-PDC spheroids, viability, % test/control; test: Anticancer human tumor 454973-116-R2-J3-PDC patient-derived pancreatic carcinoma cell line growth inhibition [GQUAD]; settings: second compound 0.1 µM; first compound 1 µM; hits give low values; spheroids with HUVEC and MSC
In short: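 Tumor cells were grown as complex spheroids with HUVEC endothelial cells and mesenchymal stem cells as stroma. G-quadruplex stabilizers were combined with targeted agents over half-log dilutions from near the clinical Cmax, or from 10 microM.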
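Further: spheroids exposed to compounds for seven days; 100% = DMSO vehicle control viability.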

Row | SMILES | viability, T/C [%]
1 | C=CC(=O)N1CCN(c2nc(=O)n(-c3c(C)ccnc3C(C)C)c3nc(-c4c(O)cccc4F)c(F)cc23)C(C)C1 (configuration not stated) + Cc1[nH]c2ccc(F)cc2c1-c1nc2c3cccnc3c3ncccc3c2[nH]1 | 108
2 | COc1cc(C2c3cc4c(cc3C(OC3OC5COC(C)OC5C(O)C3O)C3COC(=O)C23)OCO4)cc(OC)c1O (configuration not stated) + Cc1[nH]c2ccc(F)cc2c1-c1nc2c3cccnc3c3ncccc3c2[nH]1 | 56.8
3 | COc1cccc2c1C(=O)c1c(O)c3c(c(O)c1C2=O)CC(O)(C(=O)CO)CC3OC1CC(N)C(O)C(C)O1 (configuration not stated) + Cc1[nH]c2ccc(F)cc2c1-c1nc2c3cccnc3c3ncccc3c2[nH]1 | 28.9
4 | Cc1cccc(N(C)C(=O)C2C(O)CCN2c2nc(C)cc(C(F)(F)F)c2C#N)c1 (configuration not stated) + Cc1[nH]c2ccc(F)cc2c1-c1nc2c3cccnc3c3ncccc3c2[nH]1 | 97.7

same assay, conditions: second compound 0.1 µM; first compound 3.16 µM; hits give low values; spheroids with HUVEC and MSC

Row | SMILES | viability, T/C [%]
5 | C=CC(=O)N1CCN(c2nc(=O)n(-c3c(C)ccnc3C(C)C)c3nc(-c4c(O)cccc4F)c(F)cc23)C(C)C1 (configuration not stated) + Cc1[nH]c2ccc(F)cc2c1-c1nc2c3cccnc3c3ncccc3c2[nH]1 | 125
6 | COc1cc(C2c3cc4c(cc3C(OC3OC5COC(C)OC5C(O)C3O)C3COC(=O)C23)OCO4)cc(OC)c1O (configuration not stated) + Cc1[nH]c2ccc(F)cc2c1-c1nc2c3cccnc3c3ncccc3c2[nH]1 | 25.6
7 | COc1cccc2c1C(=O)c1c(O)c3c(c(O)c1C2=O)CC(O)(C(=O)CO)CC3OC1CC(N)C(O)C(C)O1 (configuration not stated) + Cc1[nH]c2ccc(F)cc2c1-c1nc2c3cccnc3c3ncccc3c2[nH]1 | 11
8 | Cc1cccc(N(C)C(=O)C2C(O)CCN2c2nc(C)cc(C(F)(F)F)c2C#N)c1 (configuration not stated) + Cc1[nH]c2ccc(F)cc2c1-c1nc2c3cccnc3c3ncccc3c2[nH]1 | 115

same assay, conditions: second compound 0.1 µM; first compound 10 µM; hits give low values; spheroids with HUVEC and MSC

Row | SMILES | viability, T/C [%]
9 | C=CC(=O)N1CCN(c2nc(=O)n(-c3c(C)ccnc3C(C)C)c3nc(-c4c(O)cccc4F)c(F)cc23)C(C)C1 (configuration not stated) + Cc1[nH]c2ccc(F)cc2c1-c1nc2c3cccnc3c3ncccc3c2[nH]1 | 109
10 | COc1cc(C2c3cc4c(cc3C(OC3OC5COC(C)OC5C(O)C3O)C3COC(=O)C23)OCO4)cc(OC)c1O (configuration not stated) + Cc1[nH]c2ccc(F)cc2c1-c1nc2c3cccnc3c3ncccc3c2[nH]1 | 13.3
11 | COc1cccc2c1C(=O)c1c(O)c3c(c(O)c1C2=O)CC(O)(C(=O)CO)CC3OC1CC(N)C(O)C(C)O1 (configuration not stated) + Cc1[nH]c2ccc(F)cc2c1-c1nc2c3cccnc3c3ncccc3c2[nH]1 | 0.58
12 | Cc1cccc(N(C)C(=O)C2C(O)CCN2c2nc(C)cc(C(F)(F)F)c2C#N)c1 (configuration not stated) + Cc1[nH]c2ccc(F)cc2c1-c1nc2c3cccnc3c3ncccc3c2[nH]1 | 108

same assay, conditions: second compound 0.316 µM; first compound 0.000999 µM; hits give low values; spheroids with HUVEC and MSC

Row | SMILES | viability, T/C [%]
13 | CCc1c2c(nc3ccc(O)cc13)-c1cc3c(c(=O)n1C2)COC(=O)[C@]3(O)CC + Cc1[nH]c2ccc(F)cc2c1-c1nc2c3cccnc3c3ncccc3c2[nH]1 | 67.5

same assay, conditions: second compound 0.316 µM; first compound 0.00316 µM; hits give low values; spheroids with HUVEC and MSC

Row | SMILES | viability, T/C [%]
14 | CCc1c2c(nc3ccc(O)cc13)-c1cc3c(c(=O)n1C2)COC(=O)[C@]3(O)CC + Cc1[nH]c2ccc(F)cc2c1-c1nc2c3cccnc3c3ncccc3c2[nH]1 | 25.7

same assay, conditions: second compound 0.316 µM; first compound 0.00999 µM; hits give low values; spheroids with HUVEC and MSC

Row | SMILES | viability, T/C [%]
15 | CCc1c2c(nc3ccc(O)cc13)-c1cc3c(c(=O)n1C2)COC(=O)[C@]3(O)CC + Cc1[nH]c2ccc(F)cc2c1-c1nc2c3cccnc3c3ncccc3c2[nH]1 | 19.2

same assay, conditions: second compound 0.316 µM; first compound 0.0316 µM; hits give low values; spheroids with HUVEC and MSC

Row | SMILES | viability, T/C [%]
16 | C=CC(=O)N1CCN(c2nc(=O)n(-c3c(C)ccnc3C(C)C)c3nc(-c4c(O)cccc4F)c(F)cc23)C(C)C1 (configuration not stated) + Cc1[nH]c2ccc(F)cc2c1-c1nc2c3cccnc3c3ncccc3c2[nH]1 | 103
17 | CCc1c2c(nc3ccc(O)cc13)-c1cc3c(c(=O)n1C2)COC(=O)[C@]3(O)CC + Cc1[nH]c2ccc(F)cc2c1-c1nc2c3cccnc3c3ncccc3c2[nH]1 | 14.6
18 | COc1cc(C2c3cc4c(cc3C(OC3OC5COC(C)OC5C(O)C3O)C3COC(=O)C23)OCO4)cc(OC)c1O (configuration not stated) + Cc1[nH]c2ccc(F)cc2c1-c1nc2c3cccnc3c3ncccc3c2[nH]1 | 106
19 | COc1cccc2c1C(=O)c1c(O)c3c(c(O)c1C2=O)CC(O)(C(=O)CO)CC3OC1CC(N)C(O)C(C)O1 (configuration not stated) + Cc1[nH]c2ccc(F)cc2c1-c1nc2c3cccnc3c3ncccc3c2[nH]1 | 96.5
20 | Cc1cccc(N(C)C(=O)C2C(O)CCN2c2nc(C)cc(C(F)(F)F)c2C#N)c1 (configuration not stated) + Cc1[nH]c2ccc(F)cc2c1-c1nc2c3cccnc3c3ncccc3c2[nH]1 | 104

same assay, conditions: second compound 0.316 µM; first compound 0.0999 µM; hits give low values; spheroids with HUVEC and MSC

Row | SMILES | viability, T/C [%]
21 | CCc1c2c(nc3ccc(O)cc13)-c1cc3c(c(=O)n1C2)COC(=O)[C@]3(O)CC + Cc1[nH]c2ccc(F)cc2c1-c1nc2c3cccnc3c3ncccc3c2[nH]1 | 7.62

same assay, conditions: second compound 0.316 µM; first compound 0.1 µM; hits give low values; spheroids with HUVEC and MSC

Row | SMILES | viability, T/C [%]
22 | C=CC(=O)N1CCN(c2nc(=O)n(-c3c(C)ccnc3C(C)C)c3nc(-c4c(O)cccc4F)c(F)cc23)C(C)C1 (configuration not stated) + Cc1[nH]c2ccc(F)cc2c1-c1nc2c3cccnc3c3ncccc3c2[nH]1 | 111
23 | COc1cc(C2c3cc4c(cc3C(OC3OC5COC(C)OC5C(O)C3O)C3COC(=O)C23)OCO4)cc(OC)c1O (configuration not stated) + Cc1[nH]c2ccc(F)cc2c1-c1nc2c3cccnc3c3ncccc3c2[nH]1 | 101
24 | COc1cccc2c1C(=O)c1c(O)c3c(c(O)c1C2=O)CC(O)(C(=O)CO)CC3OC1CC(N)C(O)C(C)O1 (configuration not stated) + Cc1[nH]c2ccc(F)cc2c1-c1nc2c3cccnc3c3ncccc3c2[nH]1 | 59.7
25 | Cc1cccc(N(C)C(=O)C2C(O)CCN2c2nc(C)cc(C(F)(F)F)c2C#N)c1 (configuration not stated) + Cc1[nH]c2ccc(F)cc2c1-c1nc2c3cccnc3c3ncccc3c2[nH]1 | 104

same assay, conditions: second compound 0.316 µM; first compound 0.316 µM; hits give low values; spheroids with HUVEC and MSC

Row | SMILES | viability, T/C [%]
26 | C=CC(=O)N1CCN(c2nc(=O)n(-c3c(C)ccnc3C(C)C)c3nc(-c4c(O)cccc4F)c(F)cc23)C(C)C1 (configuration not stated) + Cc1[nH]c2ccc(F)cc2c1-c1nc2c3cccnc3c3ncccc3c2[nH]1 | 107
27 | CCc1c2c(nc3ccc(O)cc13)-c1cc3c(c(=O)n1C2)COC(=O)[C@]3(O)CC + Cc1[nH]c2ccc(F)cc2c1-c1nc2c3cccnc3c3ncccc3c2[nH]1 | 3.05
